{"source": "ChEMBL document CHEMBL1126813", "about": "“Phenyl-substituted prostaglandins: potent and selective antiglaucoma agents” (J Med Chem, 1993)", "key": {"[1]": {"tested_on": "Felis catus", "assay": "Maximum irritation of cat eyes after topical administration of 5 ug of the compound", "assay_type": "functional"}, "[2]": {"tested_on": "Monkey", "assay": "Maximum reduction of the intraocular pressure in normotensive monkeys after topical administration of 3 ug of the compound", "assay_type": "functional, Cercopithecidae, Eye"}, "[3]": {"tested_on": "Felis catus", "assay": "Maximum irritation of cat eyes after topical administration of 3 ug of the compound", "assay_type": "functional"}, "[4]": {"species_on_record": "Felis catus", "assay": "Compound concentration which had a contractile effect on iris sphincter muscle of cats", "assay_type": "functional"}}}
{"compound": "CC(C)OC(=O)CCC/C=C\\C[C@@H]1[C@@H](/C=C/[C@@H](O)CCc2ccccc2)[C@H](O)C[C@@H]1O", "values": [{"measurement": "Irritation of eyes", "setting": "[1]", "value": 0.2, "unit": "arbitrary units"}, {"measurement": "Reduction of IOP", "setting": "[2]", "value": 2.9, "unit": "mmHg"}]}
{"compound": "CC(C)OC(=O)CCC/C=C\\C[C@@H]1[C@@H](/C=C/[C@H](O)CCc2ccccc2)[C@H](O)C[C@@H]1O", "values": [{"measurement": "Irritation of eyes", "setting": "[1]", "value": 0, "unit": "arbitrary units"}, {"measurement": "Reduction of IOP", "setting": "[2]", "value": 1.9, "unit": "mmHg"}]}
{"compound": "CCCCC[C@H](O)CC[C@@H]1[C@@H](C/C=C\\CCCC(=O)OC(C)C)[C@@H](O)C[C@H]1O", "values": [{"measurement": "Irritation of eyes", "setting": "[3]", "value": 2.5, "unit": "arbitrary units"}, {"measurement": "Reduction of IOP", "setting": "[2]", "value": 2.5, "unit": "mmHg"}]}
{"compound": "CCCCC[C@@H](O)CC[C@@H]1[C@@H](C/C=C\\CCCC(=O)OC(C)C)[C@@H](O)C[C@H]1O", "values": [{"measurement": "Irritation of eyes", "setting": "[3]", "value": 2.3, "unit": "arbitrary units"}, {"measurement": "Reduction of IOP", "setting": "[2]", "value": 0.7, "unit": "mmHg"}]}
{"compound": "CC(C)OC(=O)CCC/C=C\\C[C@@H]1[C@@H](CC[C@H](O)CCc2ccccc2)[C@H](O)C[C@@H]1O", "values": [{"measurement": "Irritation of eyes", "setting": "[3]", "value": 0, "unit": "arbitrary units"}, {"measurement": "Reduction of IOP", "setting": "[2]", "value": 1, "unit": "mmHg"}]}
{"compound": "O=C(O)CCC/C=C\\C[C@@H]1[C@@H](CC[C@@H](O)CCc2ccccc2)[C@H](O)C[C@@H]1O", "note": "[LATANOPROST ACID]", "values": [{"measurement": "EC50", "setting": "[4]", "value": 0.71, "unit": "nM"}]}
{"compound": "CC(C)OC(=O)CCC/C=C\\C[C@@H]1[C@@H](CC[C@@H](O)CCc2ccccc2)[C@H](O)C[C@@H]1O", "note": "[LATANOPROST]", "values": [{"measurement": "Irritation of eyes", "setting": "[3]", "value": 0, "unit": "arbitrary units"}, {"measurement": "Reduction of IOP", "setting": "[2]", "value": 2.6, "unit": "mmHg"}]}
